In patent publication US6358517B1, “Cosmetic compositions containing resveratrol and retinoids” (Unilever Home & Personal Care USA, division of Conopco, priority 1999, dated 2002):

How the values were obtained:
[1] = tested on: Cellular Retinoic Acid Binding Protein 2 (CRABP-2); assay: CRABP-2 expression in pig skin organ culture (epidermis), Western blot; assay type: cell-based; conditions: for effects on CRABP-2 expression (in words): alone, pig skin epidermis, summary of Table 1
Protocol: 7 mm pig skin biopsies were taken, plated in serum free DMEM, and incubated for 2 days. The media was then switched to phenol-red free media. The biopsies were topically treated with resveratrol for 24 hrs in 5 μl ethanol per biopsy. After 24 hours, retinoids were topically applied to the biopsies. The treated biopsies were incubated for 4 days thereafter. After treatment phase, the biopsies were rinsed in 1×phosphate-buffer twice and then frozen at −20° C. for future use. The epidermis and dermis was separated by freezing and scraping off the epidermis. The epidermis was collected and homogenized in lysis buffer (contains 1×PBS, 1% TritonX, 0.5% sodium deoxycholate, 0.1% SDS containing protease inhibitor (10 mg/ml PMSF in isopropanol at 10 μl/ml, Aprotinin 30 μl/ml and 100 mM sodium orthovanadate at 10 μl/ml). This homogenate was then spun at 14000 rpm and the supernatant was collected for determining protein (aliquot of the supernatant for protein determination).
Within the cells, retinol and retinoic acid are bound to specific cellular binding proteins. […] These proteins regulate the intracellular concentration of retinoids by acting as either storage or shuttle proteins in retinoid metabolism. The levels of CRABP protein are regulated by the amount of retinoic acid within the cells. Higher cellular levels of retinoids increase the expression of CRABP-2. Therefore, the amount of this protein in the cells, is a measure of the retinoid activity of the cells. Skin cells contain high levels of CRABP-2 both in the epidermis and the dermis. […] Increase in CRABP-2 is also associated with increased epidermal differentiation, and dermal retinoid action. Therefore, in these studies we used CRABP-2 expression of fibroblasts and pig skin epidermis as a measure of retinoid activity leading to increased epidermal differentiation (skin conditioning and dry skin benefit) and dermal collagen and extracellular matrix synthesis (antiaging, anti wrinkling benefits).
To measure the levels of CRABP-2 in the fibroblast and pig skin extracts prepared as described above, the cell supernatant was re-suspended in 4×sample buffer and 10% BME, boiled for 5 minutes and used for western blotting. […] The gels were transferred to PVDF membranes and Western Blotting was carried out using monoclonal antibodies to CRABP-2 according to standard procedures. The CRABP-2 protein band was visualized in the Western Blots using the chemiluminescence system obtained from Boehringer Mannheim (Indianopolis, Ind.). The bands in the film were quantified by densitometric scanning, the data from triplicate samples were calculated as % of control and expressed in the following tables as % increase over control (with control as 100%) +/− standard deviation.

[2] = tested on: Cellular Retinoic Acid Binding Protein 2 (CRABP-2); assay: CRABP-2 expression in human adult skin fibroblasts, Western blot; assay type: cell-based; conditions: for CRABP-2 expression in skin fibroblasts in combination with resveratrol (in words): retinoid combined with resveratrol, summary of Tables 2A and 2B
Protocol: Human adult fibroblasts obtained from sun-protected inner arm of the […] were used. Cells were grown in 1:1 DMEM/Hams F12 media containing 10% FBS, maintained at 37° C. in a 5% CO2 atmosphere under normal atmospheric oxygen tension. Third passage adult fibroblasts were grown in DMEM media with 10% FBS in 12-well plates at a seeding density of 40,000 cells/ml/well. The cells at 80% confluence were rinsed in serum free and phenol red free (PRF) DMEM media twice. Cells were pretreated with resveratrol for 4 hours was conducted and then dosed with retinoids and incubated for a further 48 hours. After the incubation, the wells were washed twice with 1×PBS and the cell monolayer was harvested in 100 μl cell lysis buffer (contained 1×PBS, 1% TritonX, 0.5% sodium deoxycholate, 0.1% SDS containing protease inhibitor (10 mg/ml PMSF in isopropanol, 10 μl/ml). The suspension was spun at 14000 rpm for 10 minutes, the supernatant collected and an aliquot of this supernatant was used for protein quantification. Protein concentration was determined using Pierce protein kit. The remainder of 1 00ul supernatant (cell lysate) was denatured in a mixture of 40 μl sample buffer (NOVEX) and 0.5% Beta mercaptoethanol (BME) and by boiling the sample for 5 minutes.
Within the cells, retinol and retinoic acid are bound to specific cellular binding proteins. Two of the major proteins are CRABP-1 and CRABP-2 (Roos et al., Pharmacological reviews: 50, 315-333, 1998). These proteins regulate the intracellular concentration of retinoids by acting as either storage or shuttle proteins in retinoid metabolism. The levels of CRABP protein are regulated by the amount of retinoic acid within the cells. Higher cellular levels of retinoids increase the expression of CRABP-2. Therefore, the amount of this protein in the cells, is a measure of the retinoid activity of the cells. Skin cells contain high levels of CRABP-2 both in the epidermis and the dermis. CRABP-2 response to retinoid administration in fibroblasts in vitro is used as a reproducible measure of retinoid bioactivity that predict human skin responses (Elder et al., J. Invest. Dermatol., 106: 517-521, 1996). Increase in CRABP-2 is also associated with increased epidermal differentiation, and dermal retinoid action. Therefore, in these studies we used CRABP-2 expression of fibroblasts and pig skin epidermis as a measure of retinoid activity leading to increased epidermal differentiation (skin conditioning and dry skin benefit) and dermal collagen and extracellular matrix synthesis (antiaging, anti wrinkling benefits).
To measure the levels of CRABP-2 in the fibroblast and pig skin extracts prepared as described above, the cell supernatant was re-suspended in 4×sample buffer and 10% BME, boiled for 5 minutes and used for western blotting. Equal amounts of protein were loaded onto 16% Tris-glycine gels for CRABP-2 protein analysis by SDS-PAGE and Western Immuno-blotting. The gels were transferred to PVDF membranes and Western Blotting was carried out using monoclonal antibodies to CRABP-2 according to standard procedures. The CRABP-2 protein band was visualized in the Western Blots using the chemiluminescence system obtained from Boehringer Mannheim (Indianopolis, Ind.). The bands in the film were quantified by densitometric scanning, the data from triplicate samples were calculated as % of control and expressed in the following tables as % increase over control (with control as 100%) +/− standard deviation. […]

[3] = Table 2B, 10 μM Resveratrol alone
[4] = Table 2B, 10 μM Retinoic acid alone
[5] = Homo sapiens, Skin fibroblast, Table 2A, 100 nM alone, read-out: % of Control

Row | SMILES | effects on CRABP-2 expression (in words) [1] | % as Control ([2]; Table 2B, 1 μM alone) | CRABP-2 production ([2]; Table 2B, 1 μM alone) | % as Control ([2]; Table 3, 100 nM alone) | CRABP-2 production ([2]; Table 3, 100 nM alone) | CRABP-2 expression in skin fibroblasts in combination with resveratrol (in words) [2] | activity at 0.1 µM [2, 5] | CRAB-2 production ([2]; Table 2A, 100 nM alone) | also measured
1 | Oc1ccc(/C=C/c2cc(O)cc(O)c2)cc1 [Resveratrol, 5-parahydroxystyryl resorcinol] | only minimal, insignificant effects | – | – | – | – | – | – | – | activity at 50 µM ([1]; Sus scrofa, Experiment 1, 50 μM, topical on pig skin biopsies, read-out: CRABP-2, Alone (% of control, control as 100%)): 143%; activity at 20 µM ([1]; Sus scrofa, Experiment 2, 20 μM, topical on pig skin biopsies, read-out: CRABP-2, Alone (% of control, control as 100%)): 242%; activity at 10 µM ([2]; Homo sapiens, Skin fibroblast, Table 2A, 10 μM alone, read-out: % of Control): 27%; CRAB-2 production ([2]; Table 2A, 10 μM alone): 0.416 +/− 0.12; % as Control [2, 3]: 32 +/− 1%; CRABP-2 production [2, 3]: 0.185
2 | CC1=C(/C=C/C(C)=C/C=C/C(C)=C/C(=O)O)C(C)(C)CCC1 [Retinoic acid] | – | – | – | – | – | – | – | – | activity at 0.001 µM ([2]; Homo sapiens, Skin fibroblast, Table 2A, 1 nM alone, read-out: % of Control): 132%; activity at 0.01 µM ([2]; Homo sapiens, Skin fibroblast, Table 2A, 10 nM alone, read-out: % of Control): 165%; CRAB-2 production ([2]; Table 2A, 1 nM alone): 2.056 +/− 0.50; CRAB-2 production ([2]; Table 2A, 10 nM alone): 2.566 +/− 0.19; % as Control [2, 4]: 574 +/− 60%; CRABP-2 production [2, 4]: 3.27 +/− 0.34; % as Control ([2]; Table 3, 10 nM alone): 266 +/− 80%; CRABP-2 production ([2]; Table 3, 10 nM alone): 1.201 +/− 0.36
3 | CC1=C(/C=C/C(C)=C/C=C/C(C)=C/CO)C(C)(C)CCC1 [Retinol] | significantly higher stimulation | 270 +/− 73% | 1.54 +/− 0.41 | 308 +/− 108% | 1.387 +/− 0.49 | effective | – | – | activity at 5 µM ([1]; Sus scrofa, Experiment 2, 5 μM, topical on pig skin biopsies, read-out: CRABP-2, Alone (% of control, control as 100%)): 345%
4 | CC(=O)OC/C=C(C)/C=C/C=C(C)/C=C/C1=C(C)CCCC1(C)C [Retinyl Acetate] | – | 178 +/− 102% | 1.01 +/− 0.58 | 124 +/− 42% | 0.561 +/− 0.19 | – | 56% | 0.876 +/− 0.20 | CRABP-2 expression in skin fibroblasts (in words) ([2]; Low levels (100 nm), either alone or in combination with resveratrol): ineffective; CRABP-2 expression in skin fibroblasts (in words) ([2]; higher levels (Table 2B), in the presence of reveratrol): stimulated CRABP-2 expression
5 | CCCCC/C=C\C/C=C\CCCCCCCC(=O)OC/C=C(C)/C=C/C=C(C)/C=C/C1=C(C)CCCC1(C)C [Retinyl Linoleate] | – | 112 +/− 75% | – | 253 +/− 127% | 1.141 +/− 0.57 | – | – | 0.88 +/− 0.23 | % of Control ([2]; Table 2A, 100 nM alone): 57 +/− 14%
6 | CCCCCCCCCCCCCCCC(=O)OC/C=C(C)/C=C/C=C(C)/C=C/C1=C(C)CCCC1(C)C [Retinyl Palmitate] | – | 503 +/− 260% | 2.87 +/− 1.48 | 254 +/− 101% | 1.143 +/− 0.45 | not effective | 25% | 0.376 +/− 0.11 | –
